What was measured:
HiBit-BRM fusion protein = biological target: T1, HiBit-BRM fusion protein (Homo sapiens, UniProt P51531); assay: HiBiT-BRM cell-based degradation assay (Nano-Glo HiBiT Lytic Detection, 24 h); details: HeLa cell line expressing HiBiT-BRM; for DC50: read-out: BRM HiBit Degradation IC50
T1 construct: expressed in transfected cells
Method in brief: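 Luminescence from reconstituted NanoBiT luciferase in lysed HeLa HiBiT-BRM cells served as the measure of remaining BRM after 24 h treatment. Compounds were tested from 30 μM final downward in 3-fold steps. DMSO and 2 μM of a standard BRM/BRG1 degrader defined the scale limits.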

[1] = biological target: T2, HiBit-BRG1 fusion protein (Homo sapiens, UniProt P51532); assay: HiBiT-BRG1 cell-based degradation assay (Nano-Glo HiBiT Lytic Detection, 24 h); details: HeLa cell line expressing HiBit-BRG1 and LgBit; for Dmax: read-out: BRG1 HiBit Degradation Maximum (%); for DC50: read-out: BRMG1 HiBit Degradation IC50
T2 construct: expressed in transfected cells
T2 sequence (P51532 whole entry, the tested form may be a part): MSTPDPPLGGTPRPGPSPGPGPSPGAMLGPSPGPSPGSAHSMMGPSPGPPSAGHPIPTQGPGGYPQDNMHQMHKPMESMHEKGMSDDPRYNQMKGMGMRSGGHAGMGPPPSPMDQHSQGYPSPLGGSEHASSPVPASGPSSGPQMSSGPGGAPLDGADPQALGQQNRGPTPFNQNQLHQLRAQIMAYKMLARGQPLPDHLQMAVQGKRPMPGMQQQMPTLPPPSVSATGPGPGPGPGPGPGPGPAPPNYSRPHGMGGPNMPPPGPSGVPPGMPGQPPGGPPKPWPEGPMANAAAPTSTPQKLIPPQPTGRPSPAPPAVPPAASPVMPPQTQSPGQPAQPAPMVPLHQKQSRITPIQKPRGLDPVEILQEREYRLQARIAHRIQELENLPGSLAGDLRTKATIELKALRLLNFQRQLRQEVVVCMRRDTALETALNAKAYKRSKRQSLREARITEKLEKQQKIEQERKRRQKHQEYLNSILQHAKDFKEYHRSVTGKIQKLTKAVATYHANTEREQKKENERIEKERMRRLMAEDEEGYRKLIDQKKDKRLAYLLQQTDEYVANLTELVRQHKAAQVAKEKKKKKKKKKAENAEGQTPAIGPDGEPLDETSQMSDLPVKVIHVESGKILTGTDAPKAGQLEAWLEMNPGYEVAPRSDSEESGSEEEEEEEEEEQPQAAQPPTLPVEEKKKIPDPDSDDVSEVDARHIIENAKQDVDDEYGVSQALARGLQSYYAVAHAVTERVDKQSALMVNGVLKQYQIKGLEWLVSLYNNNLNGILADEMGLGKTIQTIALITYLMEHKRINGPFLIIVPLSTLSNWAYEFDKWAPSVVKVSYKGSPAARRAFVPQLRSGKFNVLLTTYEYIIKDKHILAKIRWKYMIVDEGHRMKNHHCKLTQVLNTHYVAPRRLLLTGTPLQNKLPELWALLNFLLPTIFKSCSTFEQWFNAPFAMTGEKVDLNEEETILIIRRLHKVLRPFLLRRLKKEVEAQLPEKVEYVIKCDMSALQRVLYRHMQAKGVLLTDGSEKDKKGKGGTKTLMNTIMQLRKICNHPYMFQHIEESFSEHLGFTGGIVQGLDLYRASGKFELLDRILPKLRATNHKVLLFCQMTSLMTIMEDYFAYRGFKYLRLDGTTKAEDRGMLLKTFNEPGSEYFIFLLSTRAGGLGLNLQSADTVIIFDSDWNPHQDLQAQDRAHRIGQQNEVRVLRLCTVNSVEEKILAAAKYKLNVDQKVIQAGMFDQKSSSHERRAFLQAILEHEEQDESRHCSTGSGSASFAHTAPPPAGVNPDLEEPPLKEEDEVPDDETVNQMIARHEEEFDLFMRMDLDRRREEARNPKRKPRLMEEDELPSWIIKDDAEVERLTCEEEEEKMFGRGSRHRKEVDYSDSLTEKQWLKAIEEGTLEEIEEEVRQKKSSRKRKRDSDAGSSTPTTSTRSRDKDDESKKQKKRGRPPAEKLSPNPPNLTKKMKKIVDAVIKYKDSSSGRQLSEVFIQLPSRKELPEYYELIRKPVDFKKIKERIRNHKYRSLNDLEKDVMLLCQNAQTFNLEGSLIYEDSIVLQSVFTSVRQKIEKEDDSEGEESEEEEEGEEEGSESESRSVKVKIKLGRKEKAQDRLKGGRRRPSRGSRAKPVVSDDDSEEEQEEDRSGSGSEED
Method in brief: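 HeLa cells stably expressing HiBit-BRG1 plus LgBit; compound exposure 24 h; Nano-Glo HiBiT lytic luminescence; % degradation vs DMSO (0%) and 2 μM standard BRM/BRG1 degrader (100%).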

T1 sequence (P51531 whole entry, the tested form may be a part): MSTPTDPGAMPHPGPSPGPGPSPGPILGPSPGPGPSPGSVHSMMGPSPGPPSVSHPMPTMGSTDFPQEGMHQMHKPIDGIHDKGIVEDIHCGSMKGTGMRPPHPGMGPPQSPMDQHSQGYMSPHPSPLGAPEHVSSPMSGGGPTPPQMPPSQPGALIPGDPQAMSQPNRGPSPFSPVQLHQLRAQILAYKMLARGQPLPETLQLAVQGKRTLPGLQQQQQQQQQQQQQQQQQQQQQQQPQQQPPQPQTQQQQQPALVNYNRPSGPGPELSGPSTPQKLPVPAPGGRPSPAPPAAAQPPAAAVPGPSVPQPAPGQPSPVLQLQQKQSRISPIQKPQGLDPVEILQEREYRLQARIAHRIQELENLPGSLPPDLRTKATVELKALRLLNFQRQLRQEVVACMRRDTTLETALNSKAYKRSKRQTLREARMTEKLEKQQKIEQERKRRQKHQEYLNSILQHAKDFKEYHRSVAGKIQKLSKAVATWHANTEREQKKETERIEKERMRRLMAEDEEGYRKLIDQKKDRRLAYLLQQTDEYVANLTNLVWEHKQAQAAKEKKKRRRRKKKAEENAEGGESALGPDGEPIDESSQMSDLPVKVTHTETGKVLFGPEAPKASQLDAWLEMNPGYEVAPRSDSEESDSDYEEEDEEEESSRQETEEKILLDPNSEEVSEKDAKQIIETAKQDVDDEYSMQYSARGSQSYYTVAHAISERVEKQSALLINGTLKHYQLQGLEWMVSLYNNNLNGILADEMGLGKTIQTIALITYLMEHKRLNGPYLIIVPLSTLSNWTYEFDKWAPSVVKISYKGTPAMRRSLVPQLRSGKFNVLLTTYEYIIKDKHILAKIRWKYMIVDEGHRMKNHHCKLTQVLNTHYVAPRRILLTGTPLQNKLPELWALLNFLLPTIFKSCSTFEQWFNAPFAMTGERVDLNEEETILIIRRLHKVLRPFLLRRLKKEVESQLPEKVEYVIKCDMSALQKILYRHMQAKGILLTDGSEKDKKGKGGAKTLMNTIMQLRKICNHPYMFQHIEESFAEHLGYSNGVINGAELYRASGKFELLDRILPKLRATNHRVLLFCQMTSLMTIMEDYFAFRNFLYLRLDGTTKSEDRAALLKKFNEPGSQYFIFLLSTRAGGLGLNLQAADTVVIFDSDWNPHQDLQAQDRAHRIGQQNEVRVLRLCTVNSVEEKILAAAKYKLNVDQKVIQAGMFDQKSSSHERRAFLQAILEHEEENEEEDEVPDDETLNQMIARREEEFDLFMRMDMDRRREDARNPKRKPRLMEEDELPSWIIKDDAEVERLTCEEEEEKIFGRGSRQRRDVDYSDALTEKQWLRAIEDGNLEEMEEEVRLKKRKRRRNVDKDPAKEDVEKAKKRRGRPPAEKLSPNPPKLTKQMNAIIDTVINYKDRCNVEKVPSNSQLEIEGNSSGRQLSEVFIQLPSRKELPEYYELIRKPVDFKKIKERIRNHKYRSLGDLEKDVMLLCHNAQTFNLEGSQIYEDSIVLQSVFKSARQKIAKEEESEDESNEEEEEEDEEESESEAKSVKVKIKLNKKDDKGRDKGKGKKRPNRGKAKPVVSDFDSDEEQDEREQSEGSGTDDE

Compound	DC50 (HiBit-BRM fusion protein)	Dmax [1]	DC50 [1]	BRM HiBit Degradation Maximum (%) (HiBit-BRM fusion protein)
Cc1ncsc1-c1ccc(CNC(=O)[C@@H]2C[C@@H](O)CN2C(=O)[C@@H](NC(=O)CCCCCCCCCC(=O)N2CC(c3cc4cc(-c5ccccc5O)nnc4[nH]3)C2)C(C)(C)C)cc1 [Compound 5, (2S,4R)-4-hydroxy-1-((S)-2-(11-(3-(3-(2-hydroxyphenyl)-7H-pyrrolo[2,3-c]pyridazin-6-yl)azetidin-1-yl)-11-oxoundecanamido)-3,3-dimethylbutanoyl)-N-(4-(4-methylthiazol-5-yl)benzyl)pyrrolidine-2-carboxamide]	> 100 nM	< 50%	–	A (“A” indicates maximum degradation ≥ 75%)
Cc1ncsc1-c1ccc(CNC(=O)[C@@H]2C[C@@H](O)CN2C(=O)[C@@H](NC(=O)CCCC(=O)N2CC(c3cc4cc(-c5ccccc5O)nnc4[nH]3)C2)C(C)(C)C)cc1 [Compound 6, (2S,4R)-4-hydroxy-1-((S)-2-(5-(3-(3-(2-hydroxyphenyl)-7H-pyrrolo[2,3-c]pyridazin-6-yl)azetidin-1-yl)-5-oxopentanamido)-3,3-dimethylbutanoyl)-N-(4-(4-methylthiazol-5-yl)benzyl)pyrrolidine-2-carboxamide]	> 1000 nM	> 75%	> 1000 nM	B (“B” indicates maximum degradation ≥ 50%)
O=C1CCC(N2C(=O)c3cccc(OCCCCC(=O)N4CC(c5cc6cc(-c7ccccc7O)nnc6[nH]5)C4)c3C2=O)C(=O)N1 (stereo not drawn) [Compound 7, 2-(2,6-dioxopiperidin-3-yl)-4-((5-(3-(3-(2-hydroxyphenyl)-7H-pyrrolo[2,3-c]pyridazin-6-yl)azetidin-1-yl)-5-oxopentyl)oxy)isoindoline-1,3-dione]	> 1000 nM	> 50%	> 1000 nM	B (“B” indicates maximum degradation ≥ 50%)
O=C1CCC(N2C(=O)c3cccc(OCCCC(=O)N4CC(c5cc6cc(-c7ccccc7O)nnc6[nH]5)C4)c3C2=O)C(=O)N1 (stereo not drawn) [Compound 8, 2-(2,6-dioxopiperidin-3-yl)-4-(4-(3-(3-(2-hydroxyphenyl)-7H-pyrrolo[2,3-c]pyridazin-6-yl)azetidin-1-yl)-4-oxobutoxy)isoindoline-1,3-dione]	> 1000 nM	> 75%	> 1000 nM	A (“A” indicates maximum degradation ≥ 75%)
O=C1CCC(N2C(=O)c3ccc(NCCCCCCCCC(=O)N4CC(c5cc6cc(-c7ccccc7O)nnc6[nH]5)C4)cc3C2=O)C(=O)N1 (stereo not drawn) [Compound 9, 2-(2,6-dioxopiperidin-3-yl)-5-((9-(3-(3-(2-hydroxyphenyl)-7H-pyrrolo[2,3-c]pyridazin-6-yl)azetidin-1-yl)-9-oxononyl)amino) isoindoline-1,3-dione]	> 1000 nM	< 50%	–	B (“B” indicates maximum degradation ≥ 50%)
Cc1ncsc1-c1ccc(CNC(=O)[C@@H]2C[C@@H](O)CN2C(=O)[C@@H](NC(=O)CCCCCCCC(=O)N2CC(c3cc4cc(-c5ccccc5O)nnc4[nH]3)C2)C(C)(C)C)cc1 [Compound 10, (2S,4R)-4-hydroxy-1-((S)-2-(9-(3-(3-(2-hydroxyphenyl)-7H-pyrrolo[2,3-c]pyridazin-6-yl)azetidin-1-yl)-9-oxononanamido)-3,3-dimethylbutanoyl)-N-(4-(4-methylthiazol-5-yl)benzyl)pyrrolidine-2-carboxamide]	> 1000 nM	< 50%	–	B (“B” indicates maximum degradation ≥ 50%)

The next lines start with results.

DC50 (HiBit-BRM fusion protein)	Dmax [1]	DC50 [1]	Compound	BRM HiBit Degradation Maximum (%) (HiBit-BRM fusion protein)
> 100 nM	< 50%	–	Cc1ncsc1-c1ccc([C@H](C)NC(=O)[C@@H]2C[C@@H](O)CN2C(=O)[C@@H](NC(=O)CCCCCCCCCCCCCC(=O)N2CC(c3cc4cc(-c5ccccc5O)nnc4[nH]3)C2)C(C)(C)C)cc1 [Compound 11, (2S,4R)-4-hydroxy-1-((S)-2-(15-(3-(3-(2-hydroxyphenyl)-7H-pyrrolo[2,3-c]pyridazin-6-yl)azetidin-1-yl)-15-oxopentadecanamido)-3,3-dimethylbutanoyl)-N-((S)-1-(4-(4-methylthiazol-5-yl)phenyl)ethyl)pyrrolidine-2-carboxamide]	B (“B” indicates maximum degradation ≥ 50%)
> 100 nM	< 50%	–	Cc1ncsc1-c1ccc([C@H](C)NC(=O)[C@@H]2C[C@@H](O)CN2C(=O)[C@@H](NC(=O)CCCCCCCCCCCCC(=O)N2CC(c3cc4cc(-c5ccccc5O)nnc4[nH]3)C2)C(C)(C)C)cc1 [Compound 12, (2S,4R)-4-hydroxy-1-((S)-2-(14-(3-(3-(2-hydroxyphenyl)-7H-pyrrolo[2,3-c]pyridazin-6-yl)azetidin-1-yl)-14-oxotetradecanamido)-3,3-dimethylbutanoyl)-N-((S)-1-(4-(4-methylthiazol-5-yl)phenyl)ethyl)pyrrolidine-2-carboxamide]	A (“A” indicates maximum degradation ≥ 75%)
> 100 nM	< 50%	–	Cc1ncsc1-c1ccc([C@H](C)NC(=O)[C@@H]2C[C@@H](O)CN2C(=O)[C@@H](NC(=O)CCCCCCCCCCC(=O)N2CC(c3cc4cc(-c5ccccc5O)nnc4[nH]3)C2)C(C)(C)C)cc1 [Compound 13, (2S,4R)-4-hydroxy-1-((S)-2-(12-(3-(3-(2-hydroxyphenyl)-7H-pyrrolo[2,3-c]pyridazin-6-yl)azetidin-1-yl)-12-oxododecanamido)-3,3-dimethylbutanoyl)-N-((S)-1-(4-(4-methylthiazol-5-yl)phenyl)ethyl)pyrrolidine-2-carboxamide]	A (“A” indicates maximum degradation ≥ 75%)
–	< 50%	–	Cc1ncsc1-c1ccc(CNC(=O)[C@@H]2C[C@@H](O)CN2C(=O)[C@@H](NC(=O)CCN2CC(c3cc4cc(-c5ccccc5O)nnc4[nH]3)C2)C(C)(C)C)cc1 [Compound 16, (2S,4R)-4-hydroxy-1-((S)-2-(3-(3-(3-(2-hydroxyphenyl)-7H-pyrrolo[2,3-c]pyridazin-6-yl)azetidin-1-yl)propanamido)-3,3-dimethylbutanoyl)-N-(4-(4-methylthiazol-5-yl)benzyl)pyrrolidine-2-carboxamide]	C (“C” indicates maximum degradation < 50%)
–	< 50%	–	Cc1ncsc1-c1ccc(CNC(=O)[C@@H]2C[C@@H](O)CN2C(=O)[C@@H](NC(=O)CCCCCCCCCCCCC(=O)N2CC(c3cc4cc(-c5ccccc5O)nnc4[nH]3)C2)C(C)(C)C)cc1 [Compound 17, (2S,4R)-4-hydroxy-1-((S)-2-(14-(3-(3-(2-hydroxyphenyl)-7H-pyrrolo[2,3-c]pyridazin-6-yl)azetidin-1-yl)-14-oxotetradecanamido)-3,3-dimethylbutanoyl)-N-(4-(4-methylthiazol-5-yl)benzyl)pyrrolidine-2-carboxamide]	C (“C” indicates maximum degradation < 50%)
–	< 50%	–	Cc1ncsc1-c1ccc(CNC(=O)[C@@H]2C[C@@H](O)CN2C(=O)[C@@H](NC(=O)CCCCC(=O)N2CC(c3cc4cc(-c5ccccc5O)nnc4[nH]3)C2)C(C)(C)C)cc1 [Compound 18, (2S,4R)-4-hydroxy-1-((S)-2-(6-(3-(3-(2-hydroxyphenyl)-7H-pyrrolo[2,3-c]pyridazin-6-yl)azetidin-1-yl)-6-oxohexanamido)-3,3-dimethylbutanoyl)-N-(4-(4-methylthiazol-5-yl)benzyl)pyrrolidine-2-carboxamide]	C (“C” indicates maximum degradation < 50%)
–	< 50%	–	Cc1ncsc1-c1ccc(CNC(=O)[C@@H]2C[C@@H](O)CN2C(=O)[C@@H](NC(=O)CCCCCCCCCCCCCCCCC(=O)N2CC(c3cc4cc(-c5ccccc5O)nnc4[nH]3)C2)C(C)(C)C)cc1 [Compound 19, (2S,4R)-4-hydroxy-1-((S)-2-(18-(3-(3-(2-hydroxyphenyl)-7H-pyrrolo[2,3-c]pyridazin-6-yl)azetidin-1-yl)-18-oxooctadecanamido)-3,3-dimethylbutanoyl)-N-(4-(4-methylthiazol-5-yl)benzyl)pyrrolidine-2-carboxamide]	C (“C” indicates maximum degradation < 50%)
–	< 50%	–	Cc1ncsc1-c1ccc(CNC(=O)[C@@H]2C[C@@H](O)CN2C(=O)[C@@H](NC(=O)CCCCCCCCCCCCCC(=O)N2CC(c3cc4cc(-c5ccccc5O)nnc4[nH]3)C2)C(C)(C)C)cc1 [Compound 20, (2S,4R)-4-hydroxy-1-((S)-2-(15-(3-(3-(2-hydroxyphenyl)-7H-pyrrolo[2,3-c]pyridazin-6-yl)azetidin-1-yl)-15-oxopentadecanamido)-3,3-dimethylbutanoyl)-N-(4-(4-methylthiazol-5-yl)benzyl)pyrrolidine-2-carboxamide]	C (“C” indicates maximum degradation < 50%)
–	< 50%	–	Cc1ncsc1-c1ccc(CNC(=O)[C@@H]2C[C@@H](O)CN2C(=O)[C@@H](NC(=O)CCCCCCCCCCCCCCC(=O)N2CC(c3cc4cc(-c5ccccc5O)nnc4[nH]3)C2)C(C)(C)C)cc1 [Compound 21, (2S,4R)-4-hydroxy-1-((S)-2-(16-(3-(3-(2-hydroxyphenyl)-7H-pyrrolo[2,3-c]pyridazin-6-yl)azetidin-1-yl)-16-oxohexadecanamido)-3,3-dimethylbutanoyl)-N-(4-(4-methylthiazol-5-yl)benzyl)pyrrolidine-2-carboxamide]	C (“C” indicates maximum degradation < 50%)

Source: US20240024488A1, “COMPOUNDS AND USES THEREOF” (Foghorn Therapeutics Inc., priority 2020, published 2024)
